According to the NIST ThermoML archive (doi:10.1021/je0201119):

Assay: xn = mol fraction of the nth substance listed
Conditions: 92 kPa, Liquid; for mass density: Vibrating tube method

CC(C)(N)CO [2-amino-2-methylpropan-1-ol] + O
Conditions | mass density, 298.15 K [kg/m3] | mass density, 303.15 K [kg/m3] | mass density, 313.15 K [kg/m3] | mass density, 323.15 K [kg/m3] | viscosity, 298.15 K [mPa·s] | viscosity, 303.15 K [mPa·s] | viscosity, 313.15 K [mPa·s]
x1 = 0.0503 | 996.94 | 994.7 | 989.66 | 984.18 | 2.32 | 1.98 | 1.608
x1 = 0.0704 | 997.22 | 994.6 | 988.95 | 982.83 | 3.23 | 2.67 | 1.931
x1 = 0.1005 | 997.05 | 993.88 | 987.5 | – | 5.01 | 4.05 | 2.79
x1 = 0.2006 | 989.06 | 985.15 | 977.24 | – | 14.82 | 11.32 | 7
x1 = 0.2939 | 978.77 | 974.76 | 966.67 | – | 22.7 | 16.96 | 12.51
x1 = 0.4075 | 967.43 | 963.43 | 955.29 | – | 51.5 | 36.9 | 20.37
x1 = 0.4982 | 959.61 | 955.61 | 947.43 | – | 76.8 | 54.3 | 28.7
x1 = 0.5996 | 952.01 | 948 | 939.82 | – | 102.5 | 70.3 | 36.1
x1 = 0.7028 | 945.34 | 941.38 | 933.1 | – | 124.3 | 84 | 42.5
x1 = 0.8016 | 939.53 | 935.53 | 927.27 | – | 140.7 | 94 | 46.2
x1 = 0.9001 | 934.8 | 930.7 | 923.35 | – | 149.1 | 98.9 | 47.9
x1 = 1 | – | – | 919.65 | – | – | – | 47.8
